# Laboratory results taken from patent US9963445B2, “Chemical compounds” (SYNGENTA PARTICIPATIONS AG, priority 2013, dated 2018).
# How the values were obtained:
# Type in all cases: in vivo
# Setaria faberi [1] = assay: Post-emergence herbicidal activity, glasshouse pot test; design: key: 0 = no damage to plant, 5 = total damage to plant; conditions: Application post-emergence, rate 1000 g/ha, evaluated after 13 days
# Method in brief: (§1)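 Seeds sown in standard soil in pots, grown 8 days in glasshouse (24/16 °C day/night, 14 h light, 65% humidity), then sprayed with aqueous solution from active ingredient formulated in acetone/water (50:50) with 0.5% Tween 20. Plants regrown under same conditions, watered twice daily; damage scored after 13 days (0 none–5 total).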
# Alopecurus myosuroides [2] = assay: as above; design: key: 0 = no damage to plant, 5 = total damage to plant; conditions: Application post-emergence, rate 1000 g/ha, evaluated after 13 days
# Method in brief: as §1
# Abutilon theophrasti [3] = assay: as above; design: key: 0 = no damage to plant, 5 = total damage to plant; conditions: Application post-emergence, rate 1000 g/ha, evaluated after 13 days
# Method in brief: as §1
# zea mays [4] = assay: as above; design: key: 0 = no damage to plant, 5 = total damage to plant; conditions: Application post-emergence, rate 1000 g/ha, evaluated after 13 days
# Method in brief: as §1
# Echinochloa crus-galli [5] = assay: as above; design: key: 0 = no damage to plant, 5 = total damage to plant; conditions: Application post-emergence, rate 1000 g/ha, evaluated after 13 days
# Method in brief: as §1
# Amaranthus retroflexus [6] = assay: as above; design: key: 0 = no damage to plant, 5 = total damage to plant; conditions: Application post-emergence, rate 1000 g/ha, evaluated after 13 days
# Method in brief: as §1
# Setaria faberi [7] = assay: Pre-emergence herbicidal activity, glasshouse pot test; conditions: pre-emergence spray, rate 1000 g/ha, evaluated after 13 days, scale 0-5
# Method in brief: (§2)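 Seeds sown in standard soil were sprayed one day after sowing, before emergence, with compound formulated in acetone/water (50:50) plus 0.5% Tween 20. Plants were grown at 24/16 °C day/night, 14 h light, 65% humidity, watered twice daily, and damage was scored after 13 days (0 = none, 5 = total).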
# Alopecurus myosuroides [8] = assay: as above; conditions: pre-emergence spray, rate 1000 g/ha, evaluated after 13 days, scale 0-5
# Method in brief: as §2
# Abutilon theophrasti [9] = assay: as above; conditions: pre-emergence spray, rate 1000 g/ha, evaluated after 13 days, scale 0-5
# Method in brief: as §2
# zea mays [10] = assay: as above; conditions: pre-emergence spray, rate 1000 g/ha, evaluated after 13 days, scale 0-5
# Method in brief: as §2
# Echinochloa crus-galli [11] = assay: as above; conditions: pre-emergence spray, rate 1000 g/ha, evaluated after 13 days, scale 0-5
# Method in brief: as §2
# Amaranthus retroflexus [12] = assay: as above; conditions: pre-emergence spray, rate 1000 g/ha, evaluated after 13 days, scale 0-5
# Method in brief: as §2
SMILES,SETFA herbicidal damage score (Setaria faberi [1]),ALOMY herbicidal damage score (Alopecurus myosuroides [2]),ABUTH herbicidal damage score (Abutilon theophrasti [3]),ZEAMX herbicidal damage score (zea mays [4]),ECHCG herbicidal damage score (Echinochloa crus-galli [5]),AMARE herbicidal damage score (Amaranthus retroflexus [6]),"SETFA damage score, application pre-emergence (Setaria faberi [7])","ALOMY damage score, application pre-emergence (Alopecurus myosuroides [8])","ABUTH damage score, application pre-emergence (Abutilon theophrasti [9])","ZEAMX damage score, application pre-emergence (zea mays [10])","ECHCG damage score, application pre-emergence (Echinochloa crus-galli [11])","AMARE damage score, application pre-emergence (Amaranthus retroflexus [12])"
COC1=C(C)C(O)N(c2ccc([N+](=O)[O-])cn2)C1=O (stereo not drawn) [AI29],0,0,0,1,0,0,1,1,0,0,0,2
COC1=C(C)C(O)N(c2cc(C(C)C)c(C(=O)NC(C)(C)C#N)cn2)C1=O (stereo not drawn) [AI31],5,4,5,2,5,5,2,3,2,2,3,5
COC1=C(C)C(O)N(c2cc(C)c(Br)cn2)C1=O (stereo not drawn) [AI32],5,5,5,2,5,5,2,2,0,1,4,5
COC1=C(C)C(O)N(c2cc(C)c(C(=O)NC3(C#N)CC3)cn2)C1=O (stereo not drawn) [AI34],5,4,5,3,4,5,3,3,1,0,4,4
CCC(C)(C)NC(=O)c1cnc(N2C(=O)C(OC)=C(C)C2O)cc1C (stereo not drawn) [AI35],5,5,5,3,5,5,5,4,5,2,5,5
COC1=C(C)C(O)N(c2cc(C)c(C(=O)NC(C)C(C)C)cn2)C1=O (stereo not drawn) [AI36],5,5,5,3,5,5,5,4,5,2,4,5
CCC(CNC(=O)c1cnc(N2C(=O)C(OC)=C(C)C2O)cc1C)C(F)(F)F (stereo not drawn) [AI37],5,5,5,5,5,5,5,4,5,2,5,5
COC1=C(C)C(O)N(c2cc(C(F)(F)F)c(C(=O)CC#N)cn2)C1=O (stereo not drawn) [AI38],4,4,4,2,5,5,3,3,1,2,4,5
